A word on the IC50: it is the concentration that gives 50% inhibition.

The experiment concerns OCI-LY10 (PI3Kδ dependent) cells. As to the kind of experiment: OCI-LY10 cell proliferation assay (MTS). The class given is cell-based. The following applies: inhibition of OCI-LY10 cells proliferation, 72 h incubation, MTS readout at 490 nm. On the procedure:
MTS testing kit was purchased from Promega (Madison, WI, USA). The RPMI-1640, Fetal bovine serum and Penicillin-Streptomycin were purchased from BI (Biological Industries, Beit Haemek, Israel). Dimethyl sulfoxide (DMSO) was purchased from Sigma (St. Louis., MO, USA). OCI-LY10 cells were cultured in RPMI1640 supplemented with Penicillin-Streptomycin and 10% FBS.
To investigate whether a compound is able to inhibit the activity of PI3Kδ in cells, a mechanism-based assay using OCI-LY10 (PI3Kδ dependent) cells was developed. In this assay, inhibition of PI3Kδ was detected by the inhibition of OCI-LY10 cells proliferation. Cells were plated into 96-well plates at a density of 10000 cells/well. Plates were incubated at 37° C., with 5 % CO2 for 4 h. Compounds were serially diluted and added to the plates with the final compound concentrations as 10000, 3333.3, 1111.1, […], 123.5, 41.2, 13.7, 4.6 and 1.5 nM. Plates were incubated at 37° C., with 5 % CO2 for 72 h. 20 µl MTS was added into each well and the plates were incubated at 37° C., with 5 % CO2 for exactly 2 h. The absorbance was measured by a microplate reader at 490 nm. IC50 was calculated using GraphPad Prism 5.0 software.

The molecule `Cc1csc2cc([C@H](C)n3nc(-c4cnc(OC(C)C)nc4)c4c(N)ncnc43)c(-c3cccc(F)c3)c(=O)n12` [Example 89, (S)-7-(1-(4-amino-3-(2-isopropoxypyrimidin-5-yl)-1H-pyrazolo[3,4-d]pyrimidin-1-yl)ethyl)-6-(3-fluorophenyl)-3-methyl-5H-thiazolo[3,2-α]pyridin-5-one] displayed an IC50 of 73 nM.

Molecule `Cc1csc2cc([C@H](C)n3nc(-c4cnc(OC(C)C)nc4)c4c(N)ncnc43)c(-c3ccccc3)c(=O)n12` [Example 88, (S)-7-(1-(4-amino-3-(2-isopropoxypyrimidin-5-yl)-1H-pyrazolo[3,4-d]pyrimidin-1-yl)ethyl)-3-methyl-6-phenyl-5H-thiazolo[3,2-α]pyridin-5-one] showed an IC50 of 34 nM.

The molecule `Cc1csc2cc([C@H](C)n3nc(-c4cnc(OC(C)C)c(F)c4)c4c(N)ncnc43)c(-c3cccc(F)c3)c(=O)n12` [Example 21, (S)-7-(1-(4-amino-3-(5-fluoro-6-isopropoxypyridin-3-yl)-1H-pyrazolo[3,4-d]pyrimidin-1-yl)ethyl)-6-(3-fluorophenyl)-3-methyl-5H-thiazolo[3,2-a]pyridi n-5-one] yielded an IC50 (Homo sapiens, OCI-Ly10, 72 h) of 1 nM.

In the case of `CC(C)Oc1ccc(-c2nn([C@@H](C)c3cc4scc(Cl)n4c(=O)c3-c3ccccc3)c3ncnc(N)c23)cc1C#N` [Example 84, (S)-5-(4-amino-l-(1-(3-chloro-5-oxo-6-phenyl-5H-thiazolo[3,2-α]pyridin-7-yl)ethyl)-1H-pyrazolo[3,4-d]pyrimidin-3-yl)-2-isopropoxy benzonitrile], the half-inhibitory concentration (IC50) was 1 nM.

`C[C@@H](c1cc2scc(Cl)n2c(=O)c1-c1cccc(F)c1)n1nc(-c2ccc(OC3CC3)c(F)c2)c2c(N)ncnc21` [Example 12, (S)-7-(1-(4-amino-3-(4-cyclopropoxy-3-fluorophenyl)-1H-pyrazolo[3,4-d]pyrimidin-1-yl)ethyl)-3-chloro-6-(3-fluor ophenyl)-5H-thiazolo[3,2-a]pyridin-5-one]: half-maximal inhibition (Homo sapiens, OCI-Ly10, 72 h) (IC50) was put at 18 nM.

As to `Cc1csc2nc([C@H](C)n3nc(-c4ccc(OC(C)C)nc4)c4c(N)ncnc43)c(-c3cccc(F)c3)c(=O)n12` [Example 102, (S)-7-(1-(4-amino-3-(6-isopropoxypyridin-3-yl)-1H-pyrazolo[3,4-d]pyrimidin-1-yl)ethyl)-6-(3-fluorophenyl)-3-methyl-5H-thiazolo[3,2-α]pyrimidin-5-one], half-maximal inhibition (IC50) required 70 nM.

Consider `Cc1csc2cc([C@H](C)n3nc(-c4ccc(OC(C)C)nc4)c4c(N)ncnc43)c(-c3cccc(F)c3)c(=O)n12` [Example 19, (S)-7-(1-(4-amino-3-(6-isopropoxypyridin-3-yl)-1H-pyrazolo[3,4-d]pyrimidin-1-yl)ethyl)-6-(3-fluorophenyl)-3-methyl-5H-thiazolo[3,2-a]pyridin-5-one], for which half-maximal inhibition (Homo sapiens, OCI-Ly10, 72 h) (IC50) required 1 nM.

`Cc1csc2cc(C(C)n3nc(-c4ccc(OC(C)C)c(F)c4)c4c(N)ncnc43)c(-c3ccccc3)c(=O)n12` (centres unmarked) [Example 2, 7-(1-(4-amino-3-(3-fluoro-4-isopropoxyphenyl)-1H-pyrazolo[3,4-d]pyrimidin-1-yl)ethyl)-3-methyl-6-phenyl-5H-thiazolo[3,2-a]pyridin-5-one] gave a half-inhibitory concentration (IC50) of 2 nM.

The molecule `Cc1csc2cc([C@H](C)n3nc(-c4ccc(OC(C)C)c(C#N)c4)c4c(N)ncnc43)c(-c3ccccc3)c(=O)n12` [Example 82, (S)-5-(4-amino-1-(1-(3-methyl-5-oxo-6-phenyl-5H-thiazolo[3,2-α]pyridin-7-yl)ethyl)-1H-pyrazolo[3,4-d]pyrimidin-3-yl)-2-isopropoxybenzonitrile] yielded an IC50 of 1 nM.

`COc1ncc(-c2nn([C@@H](C)c3cc4scc(C)n4c(=O)c3-c3cccc(F)c3)c3ncnc(N)c23)cc1NS(C)(=O)=O` [Example 77, (S)-N-(5-(4-amino-1-(1-(6-(3-fluorophenyl)-3-methyl-5-oxo-5H-thiazolo[3,2-a]pyridin-7-yl)ethyl)-1H-pyrazolo[3,4-d]pyrimidin-3-y1)-2-methoxypyridin-3-yl)methanesulfonamide] gave a half-inhibitory concentration (IC50) of 1 nM.

For the setting “Homo sapiens, OCI-Ly10, 72 h”, `COc1ncc(-c2nn([C@@H](C)c3cc4scc(Cl)n4c(=O)c3-c3cccc(F)c3)c3ncnc(N)c23)cn1` [Example 104, (S)-7-(1-(4-amino-3-(2-methoxypyrimidin-5-yl)-1H-pyrazolo[3,4-d]pyrimidin-1-yl)ethyl)-3-chloro-6-(3-fluorophenyl)-5H-thiazolo[3,2-a]pyridin-5-one] returned an IC50 of 64 nM.

Molecule `Cc1csc2cc([C@H](C)n3nc(-c4ccc(OC(F)F)c(F)c4)c4c(N)ncnc43)c(-c3ccccc3)c(=O)n12` [Example 15, (S)-7-(1-(4-amino-3-(4-(difluoromethoxy)-3-fluorophenyl)-1H-pyrazolo[3,4-d]pyrimidin-1-yl)ethyl)-3-methyl-6-ph enyl-5H-thiazolo[3,2-a]pyridin-5-one] yielded an IC50 (Homo sapiens, OCI-Ly10, 72 h) of 1 nM.

In the case of `CC(C)Oc1ncc(-c2nn([C@@H](C)c3cc4scc(Cl)n4c(=O)c3-c3ccccc3)c3ncnc(N)c23)cn1` [Example 90, (S)-7-(1-(4-amino-3-(2-isopropoxypyrimidin-5-yl)-1H-pyrazolo[3,4-d]pyrimidin-1-yl)ethyl)-3-chloro-6-phenyl-5H-thiazolo[3,2-α]pyridin-5-one], 7 nM corresponded to half-maximal inhibition (IC50).

The molecule `Cc1csc2cc([C@H](C)n3nc(-c4cnc(OC(C)C)c(C#N)c4)c4c(N)ncnc43)c(-c3ccccc3)c(=O)n12` [Example 96, (S)-5-(4-amino-1-(1-(3-methyl-5-oxo-6-phenyl-5H-thiazolo[3,2-α]pyridin-7-yl)ethyl)-1H-pyrazolo[3,4-d]pyrimidin-3-yl)-2-isopropoxynicotinonitrile] had an IC50 of 21 nM.

`CC(C)Oc1ccc(-c2nn([C@@H](C)c3cc4scc(Cl)n4c(=O)c3-c3ccccc3)c3ncnc(N)c23)cc1F` [Example 4, (S)-7-(1-(4-amino-3-(3-fluoro-4-isopropoxyphenyl)-1H-pyrazolo[3,4-d]pyrimidin-1-yl)ethyl)-3-chloro-6-phenyl-5H-thiazolo[3,2-a]pyridin-5-one] came in with a concentration for half-maximal inhibition (IC50) (Homo sapiens, OCI-Ly10, 72 h) of 1 nM. This lies in the single-digit nanomolar range.

Take `CC(C)Oc1ccc(-c2nn([C@@H](C)c3cc4scc(Cl)n4c(=O)c3-c3cccc(F)c3)c3ncnc(N)c23)cc1F` [Example 3, (S)-7-(1-(4-amino-3-(3-fluoro-4-isopropoxyphenyl)-1H-pyrazolo[3,4-d]pyrimidin-1-yl)ethyl)-3-chloro-6-(3-fluorophenyl)-5H-thiazolo[3,2-a]pyridin-5-one]: the concentration for half-maximal inhibition (IC50) (Homo sapiens, OCI-Ly10, 72 h) was found to be 1 nM. This counts as single-digit nanomolar.

In turn, `Cc1csc2cc([C@H](C)n3nc(-c4ccc(OC(C)C)nc4)c4c(N)ncnc43)c(-c3ccccc3)c(=O)n12` [Example 18, (S)-7-(1-(4-amino-3-(6-isopropoxypyridin-3-yl)-1H-pyrazolo[3,4-d]pyrimidin-1-yl)ethyl)-3-methyl-6-phenyl-5H-thi azolo[3,2-a]pyridin-5-one] showed a half-inhibitory concentration (IC50) (Homo sapiens, OCI-Ly10, 72 h) of 1 nM.

The molecule `CC(C)Oc1ncc(-c2nn([C@@H](C)c3cc4scc(Cl)n4c(=O)c3-c3cccc(F)c3)c3ncnc(N)c23)cc1C#N` [Example 99, (S)-5-(4-amino-1-(1-(3-chloro-6-(3-fluorophenyl)-5-oxo-5H-thiazolo[3,2-α]pyridin-7-yl)ethyl)-1H-pyrazolo[3,4-d]pyrimidin-3-yl)-2-isopropoxynicotinoni trile] returned a half-maximal inhibitory concentration (IC50) of 8 nM.

The molecule `COc1ccc(-c2nn([C@@H](C)c3cc4scc(C)n4c(=O)c3-c3ccccc3)c3ncnc(N)c23)cc1NS(C)(=O)=O` [Example 6, (S)-N-(5-(4-amino-1-(1-(3-methyl-5-oxo-6-phenyl-5H-thiazolo[3,2-a]pyridin-7-yl)ethyl)-1H-pyrazolo[3,4-d]pyrimidin-3-yl)-2-methoxyphenyl)meth anesulfonamide] gave an IC50 (Homo sapiens, OCI-Ly10, 72 h) of 1 nM.

On to `COc1ccc(-c2nn([C@@H](C)c3cc4scc(C)n4c(=O)c3-c3cccc(F)c3)c3ncnc(N)c23)cc1NS(C)(=O)=O` [Example 5, (S)-N-(5-(4-amino-1-(1-(6-(3-fluorophenyl)-3-methyl-5-oxo-5H-thiazolo[3,2-a]pyridin-7-yl)ethyl)-1H-pyrazolo[3,4-d]pyrimidin-3-yl)-2-methoxyphenyl)methanesulfonamide], for which the 50% inhibitory concentration (IC50) (Homo sapiens, OCI-Ly10, 72 h) was 1 nM.

`COc1ccc(-c2nn([C@@H](C)c3cc4scc(Cl)n4c(=O)c3-c3cccc(F)c3)c3ncnc(N)c23)cc1NS(C)(=O)=O` [Example 45, (S)-N-(5-(4-amino-1-(1-(3-chloro-6-(3-fluorophenyl)-5-oxo-5H-thiazolo[3,2-a]pyridin-7-yl)ethyl)-1H-pyrazolo[3,4-d]pyrimidin-3-yl)-2-methoxyphenyl)m ethanesulfonamide] returned an IC50 (Homo sapiens, OCI-Ly10, 72 h) of 41 nM.

`CC(C)Oc1ncc(-c2nn([C@@H](C)c3cc4scc(Cl)n4c(=O)c3-c3ccccc3)c3ncnc(N)c23)cc1C#N` [Example 98, (S)-5-(4-amino-1-(1-(3-chloro-5-oxo-6-phenyl-5H-thiazolo[3,2-α]pyridin-7-y 1)ethyl)-1H-pyrazolo[3,4-d]pyrimidin-3-yl)-2-isopropoxynicotinonitrile] registered an IC50 of 8 nM. That is a single-digit nanomolar value.

Molecule `Cc1csc2cc([C@H](C)n3nc(-c4ccc(OC(C)C)c(F)c4)c4c(N)ncnc43)c(-c3ccccc3)c(=O)n12` [Example 2-S, (S)-7-(1-(4-amino-3-(3-fluoro-4-isopropoxyphenyl)-1H-pyrazolo[3,4-d]pyrimidin-1-yl)ethyl)-3-methyl-6-phenyl-5H-thiazolo[3,2-a]pyridin-5-one] came in with an IC50 (Homo sapiens, OCI-Ly10, 72 h) of 1 nM.

The record behind these values is patent US20230174556A1, “COMPOUNDS AS PROTEIN KINASE INHIBITORS” (Fochon Biosciences, Ltd., priority 2020, published 2023).
